Literature values, collected in patent US10760135B2, “Methods for predicting pancreatic cancer treatment response” (priority 2016, dated 2020).
Structures can show the parent of a compound that is named as a salt.

Tested on: advanced PDAC
Conditions: first-line treatment, patients with advanced PDAC

Q: Which 5-year survival rate does the source give for `Nc1ccn([C@@H]2O[C@H](CO)[C@@H](O)C2(F)F)c(=O)n1` [Gemcitabine, 1-(2′-Deoxy-2′,2′-difluoro-[beta]-D-ribofuranosyl)-4-aminopyrimidin-2-one hydrochloride] here?
A: Its 5-year survival rate is 2%.
